The source of these data is patent US20250114299A1, “COMBINATION THERAPY INTRAVAGINAL RINGS” (The population Council, Inc., priority 2022, published 2025).

In general, pKa refers to the pH at which an ionisable group is half protonated. A higher pKa goes with a group that holds its proton tightly.

Series [1] can be described thus: Solubility of DPV (Form I) in various solvents. Type of series: physicochemical.
A short description of series [2]: pKa of DPV (chemical properties). Type of series: physicochemical.
Series [3] has as its system wild-type HIV-1 strains and HIV-1 strains harboring different resistance-inducing mutations. The conditions noted are these: Das et al., J. Med Chem., 2004; cited from earlier work.

Like-named read-outs stand apart in the source and are kept apart here.

Consider `Cc1cc(C)c(Nc2ccnc(Nc3ccc(C#N)cc3)n2)c(C)c1` [DPV, 4-[[4-[(2,4,6-trimethylphenyl)amino]-2-pyrimidinyl]amino]benzonitrile], for which the Solubility is given as 0.17 mg/g in series [1] (Form I, 0.01M HCl); 0.02 mg/g in series [1] (Form I, 0.1M HCl); 0.001 mg/g in series [1] (Form I, 0.1M NaOH); 0.095 mg/g in series [1] (Form I, Buffer pH 2); 0.0025 mg/g in series [1] (Form I, Buffer pH 4); 0.001 mg/g in series [1] (Form I, Buffer pH 6). The Solubility in series [1] (Form I, Buffer pH 8) is 0.001 mg/g; in series [1] (Form I, Buffer pH 10), 0.001 mg/g; in series [1] (Form I, Polyethylene glycol 400) it was 47.4 mg/g; in series [1] (Form I, Propylene glycol) it was 2.69 mg/g; in series [1] (Form I, Water), 0.001 mg/g; in series [1] (water, read-out: solubility of dapivirine in water) it was less than 1 µg/mL. Also, in series [1] (water), the “solubility in water” value is recorded as “virtually insoluble in water”. Also, the pKa in series [2] stood at 5.8. Also, in series [3], the “activity against wild-type and resistant HIV-1 strains” value is “potent activity”.
